Measurements: paper PMC11578313, “Miniaturized Modular Click Chemistry‐enabled Rapid Discovery of Unique SARS‐CoV‐2 M^pro Inhibitors With Robust Potency and Drug‐like Profile” (Advanced Science, 2024)
Like-named read-outs stand apart in the source and are kept apart here.

Key:
[1] = test system: SARS‐CoV‐2 S and N proteins; type: cell-based
[2] = test system: SARS‐CoV‐2 Omicron (hCoV‐19/Korea/KDCA447321/2021); experiment: microbe, parasite or virus in culture; type: cell-based; details: Severe acute respiratory syndrome coronavirus 2, Calu-3, read-out: EC50 ± SD, SARS‐CoV‐2 Omicron
[3] = test system: SARS‐CoV‐2 (hCoV‐19/Korea/KCDC06/2020, wild type); experiment: microbe, parasite or virus in culture; type: cell-based
SARS‐CoV‐2 M^pro = SARS‐CoV‐2 M^pro (Severe acute respiratory syndrome coronavirus 2, UniProt P0DTD1); experiment: biochemical; details: reported K M value and Cheng‐Prusoff equation

`Cc1cncc(C(=O)N2C[C@H]3CC[C@@H](C2)N3[C@H](c2cccc(F)c2)c2cn(CCc3ccsc3)nn2)c1` [Compound C5N17B] was tested, and the “SARS‐CoV‐2 S and N proteins in virus‐infected cells” value [1] was “dose‐dependent reduction”, the EC50 [2] was 0.135 ± 0.003 µM and the EC50 ([3]; Severe acute respiratory syndrome coronavirus 2, Calu-3, Calu‐3, read-out: EC50 ± SD, SARS‐CoV‐2 Wild‐type) was 0.119 ± 0.011 µM. For the same compound, the EC50 ([3]; Severe acute respiratory syndrome coronavirus 2, Calu-3, Calu‐3 cells, racemate, enantiomers and […] measured in the same system, read-out: EC50, anti‐SARS‐CoV‐2 activity in Calu‐3 cells (Figure 3B)) was 0.078 µM and the Ki (SARS‐CoV‐2 M^pro) was 0.0266 µM.
